Type in all cases: cell-based
The test system of experiment [1] is Staphylococcus aureus NRS384 (MRSA). Put plainly: Broth microdilution MIC, S. aureus NRS384 (MRSA). The conditions noted are these: Staphylococcus aureus; broth microdilution, 37° C., 20 hours; read-out: MIC NRS 384 (MRSA). The gist of the method:
(§1)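 Broth microdilution in strain-specific test medium with ~5.0×10^5 cfu/ml inoculum, 1% DMSO and two-fold compound dilutions from 64 to 0.0625 μg/ml. Plates were held 20 hours at 37° C in ambient air. S. pneumoniae colonies were grown beforehand on blood agar in 5% CO2.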

Experiment [2] deals with Staphylococcus aureus ATCC 29213 (MSSA). Put plainly: Broth microdilution MIC, S. aureus ATCC 29213 (MSSA). The conditions noted are these: broth microdilution, 37° C., 20 hours, read-out: MIC S. aureus ATCC 29213 (MSSA). A digest of the protocol: as §1
A general note: Broth dilution looks for growth in wells or tubes with falling amounts of substance.

The subject of experiment [3] is Enterococcus faecalis ATCC 29212. Put plainly: Broth microdilution MIC, E. faecalis ATCC 29212. The conditions noted are these: ATCC29212, broth microdilution, 37° C., 20 hours, read-out: MIC E. faecalis ATCC 29212. The gist of the method:
as §1

The test system of experiment [4] is Enterococcus faecium ATCC 700221 (VRE). In words: Broth microdilution MIC, E. faecium ATCC 700221 (VRE). The conditions noted are these: Enterococcus faecium; broth microdilution, 37° C., 20 hours; read-out: MIC E. faecium ATCC 700221 (VRE). A digest of the protocol:
as §1

The subject of experiment [5] is Streptococcus pneumoniae ATCC 49619. In words: Broth microdilution MIC, S. pneumoniae ATCC 49619. The conditions noted are these: ATCC49619, broth microdilution, 37° C., 20 hours, read-out: MIC S. pneumoniae ATCC 49619. The gist of the method: as §1
The test system of experiment [6] is Bacillus subtilis ATCC 6633. Put plainly: Broth microdilution MIC, B. subtilis ATCC 6633. The conditions noted are these: ATCC6633, broth microdilution, 37° C., 20 hours, read-out: MIC B. subtilis ATCC 6633. A digest of the protocol:
as §1

The test system of experiment [7] is Escherichia coli ATCC 25922. In words: Broth microdilution MIC, E. coli ATCC 25922 (MHIIB w & w/o 4 mM EDTA). The conditions noted are these: broth microdilution, 37° C., 20 hours; for MIC: Escherichia coli, ATCC25922, without EDTA, read-out: MIC E. coli ATCC 25922; for MIC E. coli ATCC 25922 + 4 mM EDTA: with 4 mM EDTA. A digest of the protocol:
as §1

One may read the MIC as the lowest concentration found to suppress growth.

In the case of `Cl.O=C(c1ccncc1)N1CCC(n2ncc3nc(NCc4ccc(Cl)c(Cl)c4)[nH]c(=O)c32)C1` (stereo not shown) [Compound 259, 5-[(3,4-Dichlorophenyl)methylamino]-1-[1-(pyridine-4-carbonyl)pyrrolidin-3-yl]-6H-pyrazolo[4,3-d]pyrimidin-7-one], the MIC in experiment [1] turned out to be 8 µg/mL; in experiment [2], 8 µg/mL; in experiment [3], 4 µg/mL; in experiment [4] it was 4 µg/mL; in experiment [5], 4 µg/mL; in experiment [6], 2 µg/mL. Further, in experiment [7], the MIC is greater than 64 µg/mL. Also, the “MIC E. coli ATCC 25922 + 4 mM EDTA” value in experiment [7] is greater than 64 µg/mL.

In the case of `COc1cncc(C(=O)N2CCC(n3ncc4nc(NCc5ccc(Cl)c(Cl)c5)[nH]c(=O)c43)CC2)c1.Cl` [Compound 260, 5-((3,4-Dichlorobenzyl)amino)-1-(1-(5-methoxynicotinoyl)piperidin-4-yl)-1H-pyrazolo[4,3-d]pyrimidin-7(6H)-one hydrochloride], the MIC turned out to be 4 µg/mL in experiment [1]; 4 µg/mL in experiment [2]; 4 µg/mL in experiment [3]; 2 µg/mL in experiment [4]; 4 µg/mL in experiment [5]; 1 µg/mL in experiment [6]. In addition, the MIC in experiment [7] was greater than 64 µg/mL. Also, the “MIC E. coli ATCC 25922 + 4 mM EDTA” value in experiment [7] is greater than 64 µg/mL.

Regarding `Cc1cncc(C(=O)N2CCC(n3ncc4nc(NCc5ccc(Cl)c(Cl)c5)[nH]c(=O)c43)CC2)c1.Cl` [Compound 261, 5-((3,4-Dichlorobenzyl)amino)-1-(1-(5-methylnicotinoyl)piperidin-4-yl)-1H-pyrazolo[4,3-d]pyrimidin-7(6H)-one hydrochloride], the MIC stood at 4 µg/mL in experiment [1]; 4 µg/mL in experiment [2]; 4 µg/mL in experiment [3]; 2 µg/mL in experiment [4]; 4 µg/mL in experiment [5]; 1 µg/mL in experiment [6]. Moreover, the MIC in experiment [7] is greater than 64 µg/mL. In addition, the “MIC E. coli ATCC 25922 + 4 mM EDTA” value in experiment [7] is greater than 64 µg/mL.

Regarding `Cc1cccnc1C(=O)N1CCC(n2ncc3nc(NCc4ccc(Cl)c(Cl)c4)[nH]c(=O)c32)CC1.Cl` [Compound 262, 5-((3,4-Dichlorobenzyl)amino)-1-(1-(3-methylpicolinoyl)piperidin-4-yl)-1H-pyrazolo[4,3-d]pyrimidin-7(6H)-one hydrochloride], the MIC turned out to be 4 µg/mL in experiment [1]; 4 µg/mL in experiment [2]; 4 µg/mL in experiment [3]; 2 µg/mL in experiment [4]; 4 µg/mL in experiment [5]; 1 µg/mL in experiment [6]. Besides, the MIC in experiment [7] is greater than 64 µg/mL. Also, in experiment [7], the “MIC E. coli ATCC 25922 + 4 mM EDTA” value is greater than 64 µg/mL.

With `COc1ccnc(C(=O)N2CCC(n3ncc4nc(NCc5ccc(Cl)c(Cl)c5)[nH]c(=O)c43)CC2)c1.Cl` [Compound 263, 5-((3,4-dichlorobenzyl)amino)-1-(1-(4-methoxypicolinoyl)piperidin-4-yl)-1H-pyrazolo[4,3-d]pyrimidin-7(6H)-one hydrochloride], the MIC in experiment [1] turned out to be 2 µg/mL; in experiment [2] it was 4 µg/mL; in experiment [3], 4 µg/mL; in experiment [4] it was 1 µg/mL; in experiment [5] it was 2 µg/mL; in experiment [6], 1 µg/mL. Moreover, the MIC in experiment [7] was greater than 64 µg/mL. For the same compound, the “MIC E. coli ATCC 25922 + 4 mM EDTA” value in experiment [7] was greater than 64 µg/mL.

On to `Cc1ccnc(C(=O)N2CCC(n3ncc4nc(NCc5ccc(Cl)c(Cl)c5)[nH]c(=O)c43)CC2)c1.Cl` [Compound 264, 5-((3,4-Dichlorobenzyl)amino)-1-(1-(4-methylpicolinoyl)piperidin-4-yl)-1H-pyrazolo[4,3-d]pyrimidin-7(6H)-one hydrochloride], for which the MIC in experiment [1] turned out to be 2 µg/mL; in experiment [2] it was 4 µg/mL; in experiment [3] it was 4 µg/mL; in experiment [4], 1 µg/mL; in experiment [5], 4 µg/mL; in experiment [6], 1 µg/mL. Besides, in experiment [7], the MIC was greater than 64 µg/mL. The “MIC E. coli ATCC 25922 + 4 mM EDTA” value in experiment [7] is greater than 64 µg/mL.

`Cl.O=C(c1nnc[nH]1)N1CCC(n2ncc3nc(NCc4ccc(Cl)c(Cl)c4)[nH]c(=O)c32)CC1` [Compound 265, 1-(1-(4H-1,2,4-triazole-3-carbonyl)piperidin-4-yl)-5-((3,4-dichlorobenzyl)amino)-1H-pyrazolo[4,3-d]pyrimidin-7(6H)-one hydrochloride]: the MIC in experiment [1] is 8 µg/mL; in experiment [2], 8 µg/mL; in experiment [3], 4 µg/mL; in experiment [4], 4 µg/mL; in experiment [5], 4 µg/mL; in experiment [6] it was 4 µg/mL. Besides, the MIC in experiment [7] is greater than 64 µg/mL. For the same compound, the “MIC E. coli ATCC 25922 + 4 mM EDTA” value in experiment [7] was greater than 64 µg/mL.

For `COc1ccncc1C(=O)N1CCC(n2ncc3nc(NCc4ccc(Cl)c(Cl)c4)[nH]c(=O)c32)CC1.Cl` [Compound 266, 5-((3,4-Dichlorobenzyl)amino)-1-(1-(4-methoxynicotinoyl)piperidin-4-yl)-1H-pyrazolo[4,3-d]pyrimidin-7(6H)-one hydrochloride], the MIC in experiment [1] worked out at 8 µg/mL; in experiment [2], 8 µg/mL; in experiment [3] it was 4 µg/mL; in experiment [4] it was 2 µg/mL; in experiment [5] it was 4 µg/mL; in experiment [6] it was 2 µg/mL. Also, in experiment [7], the MIC is greater than 64 µg/mL. The “MIC E. coli ATCC 25922 + 4 mM EDTA” value in experiment [7] is greater than 64 µg/mL.

`Cc1ccncc1C(=O)N1CCC(n2ncc3nc(NCc4ccc(Cl)c(Cl)c4)[nH]c(=O)c32)CC1.Cl` [Compound 267, 5-((3,4-Dichlorobenzyl)amino)-1-(1-(4-methylnicotinoyl)piperidin-4-yl)-1H-pyrazolo[4,3-d]pyrimidin-7(6H)-one hydrochloride]: the MIC in experiment [1] amounted to 4 µg/mL; in experiment [2] it was 4 µg/mL; in experiment [3], 4 µg/mL; in experiment [4] it was 2 µg/mL; in experiment [5], 4 µg/mL; in experiment [6] it was 1 µg/mL. Also, the MIC in experiment [7] is greater than 64 µg/mL. The “MIC E. coli ATCC 25922 + 4 mM EDTA” value in experiment [7] is greater than 64 µg/mL.

Turning to `COc1cccnc1C(=O)N1CCC(n2ncc3nc(NCc4ccc(Cl)c(Cl)c4)[nH]c(=O)c32)CC1.Cl` [Compound 268, 5-((3,4-Dichlorobenzyl)amino)-1-(1-(3-methoxypicolinoyl)piperidin-4-yl)-1H-pyrazolo[4,3-d]pyrimidin-7(6H)-one hydrochloride], the MIC in experiment [1] worked out at 8 µg/mL; in experiment [2], 8 µg/mL; in experiment [3], 8 µg/mL; in experiment [4], 4 µg/mL; in experiment [5], 4 µg/mL; in experiment [6] it was 2 µg/mL. The MIC in experiment [7] was greater than 64 µg/mL. Further, the “MIC E. coli ATCC 25922 + 4 mM EDTA” value in experiment [7] is greater than 64 µg/mL.

With `Cl.O=C(c1ncc[nH]1)N1CCC(n2ncc3nc(NCc4ccc(Cl)c(Cl)c4)[nH]c(=O)c32)CC1` [Compound 269, 1-(1-(1H-imidazole-2-carbonyl)piperidin-4-yl)-5-((3,4-dichlorobenzyl)amino)-1H-pyrazolo[4,3-d]pyrimidin-7(6H)-one hydrochloride], the MIC stood at 4 µg/mL in experiment [1]; 4 µg/mL in experiment [2]; 4 µg/mL in experiment [3]; 2 µg/mL in experiment [4]; 4 µg/mL in experiment [5]; 1 µg/mL in experiment [6]. Further, the MIC in experiment [7] was greater than 64 µg/mL. The “MIC E. coli ATCC 25922 + 4 mM EDTA” value in experiment [7] was greater than 64 µg/mL.

As to `Cl.O=C(c1cnc[nH]1)N1CCC(n2ncc3nc(NCc4ccc(Cl)c(Cl)c4)[nH]c(=O)c32)CC1` [Compound 270, 1-(1-(1H-imidazole-5-carbonyl)piperidin-4-yl)-5-((3,4-dichlorobenzyl)amino)-1H-pyrazolo[4,3-d]pyrimidin-7(6H)-one hydrochloride], the MIC came to 16 µg/mL in experiment [1]; 16 µg/mL in experiment [2]; 8 µg/mL in experiment [3]; 4 µg/mL in experiment [4]; 8 µg/mL in experiment [5]; 4 µg/mL in experiment [6]. Also, the MIC in experiment [7] is greater than 64 µg/mL. Moreover, the “MIC E. coli ATCC 25922 + 4 mM EDTA” value in experiment [7] was greater than 64 µg/mL.

In the case of `Cl.O=C(c1cc[nH]n1)N1CCC(n2ncc3nc(NCc4ccc(Cl)c(Cl)c4)[nH]c(=O)c32)CC1` [Compound 271, 1-(1-(1H-pyrazole-3-carbonyl)piperidin-4-yl)-5-((3,4-dichlorobenzyl)amino)-1H-pyrazolo[4,3-d]pyrimidin-7(6H)-one hydrochloride], the MIC came to 8 µg/mL in experiment [1]; 8 µg/mL in experiment [2]; 4 µg/mL in experiment [3]; 4 µg/mL in experiment [4]; 4 µg/mL in experiment [5]; 2 µg/mL in experiment [6]. Also, the MIC in experiment [7] was greater than 64 µg/mL. Also, in experiment [7], the “MIC E. coli ATCC 25922 + 4 mM EDTA” value is greater than 64 µg/mL.

Consider `Cl.O=C(c1cn[nH]n1)N1CCC(n2ncc3nc(NCc4ccc(Cl)c(Cl)c4)[nH]c(=O)c32)CC1` [Compound 272, 1-(1-(2H-1,2,3-triazole-4-carbonyl)piperidin-4-yl)-5-((3,4-dichlorobenzyl)amino)-1H-pyrazolo[4,3-d]pyrimidin-7(6H)-one hydrochloride], for which the MIC worked out at 8 µg/mL in experiment [1]; 16 µg/mL in experiment [2]; 4 µg/mL in experiment [3]; 2 µg/mL in experiment [4]; 8 µg/mL in experiment [5]; 4 µg/mL in experiment [6]. In addition, the MIC in experiment [7] is greater than 64 µg/mL. In experiment [7], the “MIC E. coli ATCC 25922 + 4 mM EDTA” value was greater than 64 µg/mL.

These data come from patent publication US10723741B1, “DNA polymerase IIIC inhibitors and use thereof” (Acurx Pharmaceuticals, LLC, priority 2018, dated 2020).
